Data taken from patent US10774064B2 (Cadent Therapeutics, Inc., priority 2016, dated 2020).

biological target: T1, small-conductance Ca2+-activated K+ channels (SK channels, subtype 2) (Homo sapiens, UniProt Q9H2S1); experiment: whole-cell patch-clamp of ionic current through SK2 channels in HEK293 cells (SC100); assay type: cell-based; details: whole-cell patch-clamp, HEK293 cells expressing SK2 channels; concentration that increases the basal current by 100%
T1 construct: expressed in transfected cells; host or cells: HEK293
Procedure, shortened: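 Whole-cell patch-clamp recording of current in HEK293 cells expressing SK2 channels. SC100 is the compound concentration that increases basal current by 100%.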

| Structure (SMILES) | SC100 (μM) |
| --- | --- |
| Cc1ccn(-c2nc(C#N)cc(NC3CCC(F)(F)CC3)n2)n1 [IN11288-025-P1] | + (+ means >1 uM) |
| OCCN(CCO)c1cc(NC2CCC(F)(F)CC2)nc(-n2ccc(CO)n2)n1 [IN11337-019-P1, 2,2′-((6-((4,4-difluorocyclohexyl)amino)-2-(3-(hydroxymethyl)-1H-pyrazol-1-yl)pyrimidin-4-yl)azanediyl)bis-(ethan-1-ol)] | + (+ means >1 uM) |
| FCc1ccn(-c2nc(NC3CCC(F)(F)CC3)cc(OC3CC(F)C3)n2)n1 (centres unmarked) [NSSy5618, N-(4,4-difluorocyclohexyl)-6-(3-fluorocyclobutoxy)-2-(3-(fluoromethyl)-1H-pyrazol-1-yl)pyrimidin-4-amine] | + (+ means >1 uM) |
| FCc1ccn(-c2nc(NC3CCC(F)(F)CC3)cc(OC3CC(F)(F)C3)n2)n1 [NSSy5619, 6-(3,3-difluorocyclobutoxy)-N-(4,4-difluorocyclohexyl)-2-(3-(fluoromethyl)-1H-pyrazol-1-yl)pyrimidin-4-amine] | + (+ means >1 uM) |
| CC(C)C(=O)NCc1cc(NC2CCC(F)(F)CC2)nc(-n2ccc(CF)n2)c1 [NSSy5620, N-((2-((4,4-difluorocyclohexyl)amino)-6-(3-(fluoromethyl)-1H-pyrazol-1-yl)pyridin-4-yl)methyl)isobutyramide] | ++ (++ means 200 nM-1000 nM) |
| CC(=O)NCc1cc(NC2CCC(F)(F)CC2)nc(-n2cc(C)c(CF)n2)c1 [NSSy5622, N-((2-((4,4-difluorocyclohexyl)amino)-6-(3-(fluoromethyl)-4-methyl-1H-pyrazol-1-yl)pyridin-4-yl)methyl)acetamide] | ++ (++ means 200 nM-1000 nM) |
| Cc1csc(-c2nc(NC3CCC(F)(F)CC3)cc(OCc3cnnn3C)n2)n1 [NSSy5625] | +++ (+++ means <200 nM) |
| Cc1csc(-c2nc(NC3CCC(F)(F)CC3)cc(OC3CN(C(=O)C(C)C)C3)n2)n1 [NSSy5629] | +++ (+++ means <200 nM) |
| Cc1cc(C)n(-c2cc(Cc3ncco3)cc(NC3CCC(F)(F)CC3)n2)n1 [NSSy5645, N-(4,4-difluorocyclohexyl)-6-(3,5-dimethyl-1H-pyrazol-1-yl)-4-(oxazol-2-ylmethyl)pyridin-2-amine] | ++ (++ means 200 nM-1000 nM) |
| Cc1csc(-c2cc(N3CCOCC3)cc(NC3CCC(F)(F)CC3)n2)n1 [NSSy5646] | ++ (++ means 200 nM-1000 nM) |
| Cc1ccn(-c2nc(NC3CCC(F)(F)CC3)cc(OC3CC(F)C3)n2)n1 (centres unmarked) [NSSy5647, N-(4,4-difluorocyclohexyl)-6-(3-fluorocyclobutoxy)-2-(3-methyl-1H-pyrazol-1-yl)pyrimidin-4-amine] | ++ (++ means 200 nM-1000 nM) |
| Cc1csc(-c2nc(NC3CCC(F)(F)CC3)cc(OCc3nnc(C)o3)n2)n1 [NSSy5651] | ++ (++ means 200 nM-1000 nM) |
| COC(=O)NCc1cc(NC2CCC(F)(F)CC2)nc(-n2ccc(CF)n2)c1 [NSSy5653, methyl ((2-((4,4-difluorocyclohexyl)amino)-6-(3-(fluoromethyl)-1H-pyrazol-1-yl)pyridin-4-yl)methyl)carbamate] | ++ (++ means 200 nM-1000 nM) |
| Cc1ccn(-c2nc(NC3CCC(F)CC3)cc(N3CCOCC3)n2)n1 (centres unmarked) [NSSy5662] | + (+ means >1 uM) |
| Cc1ccn(-c2nc(NC3CC=CCC3)cc(N3CCOCC3)n2)n1 (centres unmarked) [NSSy5663] | + (+ means >1 uM) |
| Cc1csc(-c2nc(NC3CCC(F)(F)CC3)cc(N3CC4(COC4)C3)n2)n1 [NSSy5664] | ++ (++ means 200 nM-1000 nM) |
| Cc1csc(-c2cc(N3CCN(C)C(=O)C3)cc(NC3CCC(F)(F)CC3)n2)n1 [NSSy5674, 4-(2-((4,4-difluorocyclohexyl)amino)-6-(4-methylthiazol-2-yl)pyridin-4-yl)-1-methylpiperazin-2-one] | +++ (+++ means <200 nM) |
| Cc1csc(-c2cc(N3CC4(COC4)C3)cc(NC3CCC(F)(F)CC3)n2)n1 [NSSy5675] | +++ (+++ means <200 nM) |
| Cc1csc(-c2cc(OCc3cn(C)nn3)cc(NC3CCC(F)(F)CC3)n2)n1 [NSSy5680] | +++ (+++ means <200 nM) |
| Cc1csc(-c2cc(OCc3ncn(C)n3)cc(NC3CCC(F)(F)CC3)n2)n1 [NSSy5686] | ++ (++ means 200 nM-1000 nM) |
| Cc1csc(-c2cc(N3CCOCC3)cc(NC3CCC(F)CC3)n2)n1 (centres unmarked) [NSSy5688] | ++ (++ means 200 nM-1000 nM) |
| Cc1csc(-c2nc(NC3CCC(F)(F)CC3)cc(OCc3ncnn3C)n2)n1 [NSSy5689] | + (+ means >1 uM) |
| Cc1csc(-c2nc(NC3CCC(F)(F)CC3)cc(OCc3ncn(C)n3)n2)n1 [NSSy5690] | ++ (++ means 200 nM-1000 nM) |
| Cc1csc(-c2cc(OCc3nnc(C)o3)cc(NC3CCC(F)(F)CC3)n2)n1 [NSSy5694] | +++ (+++ means <200 nM) |
| Cc1csc(-c2cc(OCc3ncnn3C)cc(NC3CCC(F)(F)CC3)n2)n1 [NSSy5695] | ++ (++ means 200 nM-1000 nM) |
| Cc1csc(-c2nc(NC3CCC(F)CC3)cc(OC3CN(C(=O)C(C)C)C3)n2)n1 (centres unmarked) [NSSy5709] | ++ (++ means 200 nM-1000 nM) |

Next, values leading:

| SC100 (μM) | Structure (SMILES) |
| --- | --- |
| + (+ means >1 uM) | Cc1cc(NC2CCC(F)(F)CC2)nc(CC#N)n1 [IN11273-018-P1, 2-(4-((4,4-difluorocyclohexyl)amino)-6-methylpyrimidin-2-yl) acetonitrile] |
| ++ (++ means 200 nM-1000 nM) | Cc1ccn(-c2nc(NC3CCC(F)(F)CC3)cc(N3CC(=O)N(C)C(=O)C3)n2)n1 [IN11288-005-P1] |
| ++ (++ means 200 nM-1000 nM) | Cc1cn(-c2cc(OC3COC3)cc(NC3CCC(F)(F)CC3)n2)nc1CF [NSSy5615, N-(4,4-difluorocyclohexyl)-6-(3-(fluoromethyl)-4-methyl-1H-pyrazol-1-yl)-4-(oxetan-3-yloxy)pyridin-2-amine] |
| + (+ means >1 uM) | Cn1cnc(COc2cc(NC3CCC(F)(F)CC3)nc(-c3nc(CF)cs3)n2)n1 [NSSy5624, N-(4,4-difluorocyclohexyl)-2-(4-(fluoromethyl)thiazol-2-yl)-6-((1-methyl-1H-1,2,4-triazol-3-yl)methoxy)pyrimidin-4-amine] |
| ++ (++ means 200 nM-1000 nM) | Cc1ccn(-c2nc(NC3CCC(F)(F)CC3)cc(N3CC4(COC4)C3)n2)n1 [NSSy5631] |
| ++ (++ means 200 nM-1000 nM) | COC(=O)NCc1cc(NC2CCC(F)(F)CC2)nc(-n2ccc(C)n2)c1 [NSSy5635] |
| ++ (++ means 200 nM-1000 nM) | Cc1ccn(-c2cc(CNC(=O)C(C)C)cc(NC3CCC(F)(F)CC3)n2)n1 [NSSy5637] |
| ++ (++ means 200 nM-1000 nM) | Cc1ccn(-c2cc(NC3CCC(F)(F)CC3)cc(OCc3ncnn3C)n2)n1 [NSSy5638, N-(4,4-difluorocyclohexyl)-2-((1-methyl-1H-1,2,4-triazol-5-yl)methoxy)-6-(3-methyl-1H-pyrazol-1-yl)pyridin-4-amine] |
| ++ (++ means 200 nM-1000 nM) | CC(=O)NCc1cc(NC2CCC(F)(F)CC2)nc(-c2nc(C)cs2)c1 [NSSy5640, N-((2-((4,4-difluorocyclohexyl)amino)-6-(4-methylthiazol-2-yl)pyridin-4-yl)methyl)acetamide] |
| ++ (++ means 200 nM-1000 nM) | Cc1ccn(-c2cc(OCc3ncn(C)n3)cc(NC3CCC(F)(F)CC3)n2)n1 [NSSy5641] |
| ++ (++ means 200 nM-1000 nM) | Cc1ccn(-c2cc(OCc3cnnn3C)cc(NC3CCC(F)(F)CC3)n2)n1 [NSSy5643] |
| ++ (++ means 200 nM-1000 nM) | CC(=O)NCc1cc(NC2CCC(F)(F)CC2)nc(-c2nc(CF)cs2)c1 [NSSy5644, N-((2-((4,4-difluorocyclohexyl)amino)-6-(4-(fluoromethyl)thiazol-2-yl)pyridin-4-yl)methyl) acetamide] |
| + (+ means >1 uM) | Cc1ccn(-c2nc(NC3CCC(F)(F)CC3)cc(OC3CNC3)n2)n1 [NSSy5648, 6-(azetidin-3-yloxy)-N-(4,4-difluorocyclohexyl)-2-(3-methyl-1H-pyrazol-1-yl)pyrimidin-4-amine] |
| ++ (++ means 200 nM-1000 nM) | Cc1csc(-c2cc(N3CCOCC3)cc(NC3CC=CCC3)n2)n1 (centres unmarked) [NSSy5655, N-(cyclohex-3-en-1-yl)-6-(4-methylthiazol-2-yl)-4-morpholinopyridin-2-amine] |
| ++ (++ means 200 nM-1000 nM) | Cc1ccn(-c2nc(NC3CC=CCC3)cc(N3CC4(COC4)C3)n2)n1 (centres unmarked) [NSSy5670] |
| ++ (++ means 200 nM-1000 nM) | COC(=O)N(C)C1CC(Oc2cc(NC3CCC(F)(F)CC3)nc(-n3ccc(C)n3)n2)C1 (centres unmarked) [NSSy5672, methyl (3-((6-((4,4-difluorocyclohexyl)amino)-2-(3-methyl-1H-pyrazol-1-yl)pyrimidin-4-yl)oxy)cyclobutyl)(methyl)carbamate] |
| +++ (+++ means <200 nM) | Cc1ccn(-c2cc(C(O)c3cccnc3)cc(NC3CCC(F)(F)CC3)n2)n1 (centres unmarked) [NSSy5676, (2-((4,4-difluorocyclohexyl)amino)-6-(3-methyl-1H-pyrazol-1-yl)pyridin-4-yl)(pyridin-3-yl)methanol] |
| ++ (++ means 200 nM-1000 nM) | Cc1csc(-c2cc(N3CC(N(C)C)C3)cc(NC3CCC(F)(F)CC3)n2)n1 [NSSy5677] |
| + (+ means >1 uM) | Cc1ccn(-c2cc(OCc3nnc(C)o3)cc(NC3CCC(F)(F)CC3)n2)n1 [NSSy5681] |
| ++ (++ means 200 nM-1000 nM) | Cc1csc(-c2cc(N3CC(C)(O)C3)cc(NC3CCC(F)(F)CC3)n2)n1 [NSSy5687] |
| + (+ means >1 uM) | Cc1ccn(-c2nc(NC3CCC(F)CC3)cc(N3CC4(COC4)C3)n2)n1 (centres unmarked) [NSSy5691] |
| + (+ means >1 uM) | Cc1csc(-c2nc(NC3CCC(F)CC3)cc(N3CCOCC3)n2)n1 (centres unmarked) [NSSy5699, N-(4-fluorocyclohexyl)-2-(4-methylthiazol-2-yl)-6-morpholinopyrimidin-4-amine] |
| + (+ means >1 uM) | Cc1csc(-c2nc(NC3CC=CCC3)cc(N3CCOCC3)n2)n1 (centres unmarked) [NSSy5703, N-(cyclohex-3-en-1-yl)-2-(4-methylthiazol-2-yl)-6-morpholinopyrimidin-4-amine] |
| ++ (++ means 200 nM-1000 nM) | COC(=O)N1CC(Oc2cc(NC3CCC(F)CC3)nc(-c3nc(C)cs3)n2)C1 (centres unmarked) [NSSy5710] |
